As a reminder, the IC50 is the concentration that inhibits the measured activity by half. A word on the Kd: it is the free concentration of one partner at which half of the binding sites on the other are occupied at equilibrium, for simple one-to-one binding. The inhibition is the drop in the measured response relative to a control, in per cent.

Like-named read-outs stand apart in the source and are kept apart here.

Assay [1] concerns the target Tyk2/JAK2 (heterodimeric complex) (Homo sapiens (Human), UniProt P29597). The assay can be described thus: IL-12 Induced pSTAT4 in Human PBMC. The format is cell-based. The following applies: 1.7 ng/mL IL-12. The source says: The IL-12 Induced pSTAT4 assay evaluates the inhibition of IL-12 induced STAT4 phophorylation mediated by Tyk2/JAK2 (heterodimeric complex).

Assay [2] deals with human TYK2 (JH2domain-pseudokinase) (Homo sapiens (Human), UniProt P29597). Briefly: TYK2 JH2 Domain Binding Assay (KINOMEscan). Summed up:
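Competition binding of a DNA-tagged fusion of human TYK2 JH2 pseudokinase (G556–D888) with NFkB DNA-binding domain, from HEK293 extracts (<0.1 nM final), against immobilised ligand beads; 1 h shaking at room temperature, 0.9% DMSO. Bound kinase quantified by qPCR.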

In assay [3] the target is JAK2 kinase domain (JH1) (Homo sapiens (Human), UniProt O60674). The assay can be described thus: JAK2 Radioactive Kinase Assay. The format is biochemical. The note with it: for inhibition at 10 µM: read-out: JAK2 JH1% Inhibition @ 10 μM. Summed up:
(§1)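 Values are single-concentration percent inhibition figures. They were obtained with 10 μM compound in a radioactivity-based kinase assay run separately on each enzyme.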

The target in assay [4] is Tyk2 kinase domain (DH1) (Homo sapiens (Human), UniProt P29597). Briefly: Tyk2 Radioactive Kinase Assay. The format is biochemical. The following applies: for inhibition at 10 µM: read-out: Tyk2 JH1% Inhibition @ 10 μM. Summed up:
as §1

The target in assay [5] is JAK2/JAK2 homdimeric complex (Homo sapiens (Human), UniProt O60674). The assay can be described thus: GM-CSF Induced pSTAT5 in Human PBMC. The format is cell-based. The note with it: GM-CSF 5 ng/mL for 20 minutes, pSTAT5 by MSD, read-out: PBMC_GMCSF_pSTAT5 IC50.
Sequence of JAK2/JAK2 homdimeric complex (O60674 whole entry): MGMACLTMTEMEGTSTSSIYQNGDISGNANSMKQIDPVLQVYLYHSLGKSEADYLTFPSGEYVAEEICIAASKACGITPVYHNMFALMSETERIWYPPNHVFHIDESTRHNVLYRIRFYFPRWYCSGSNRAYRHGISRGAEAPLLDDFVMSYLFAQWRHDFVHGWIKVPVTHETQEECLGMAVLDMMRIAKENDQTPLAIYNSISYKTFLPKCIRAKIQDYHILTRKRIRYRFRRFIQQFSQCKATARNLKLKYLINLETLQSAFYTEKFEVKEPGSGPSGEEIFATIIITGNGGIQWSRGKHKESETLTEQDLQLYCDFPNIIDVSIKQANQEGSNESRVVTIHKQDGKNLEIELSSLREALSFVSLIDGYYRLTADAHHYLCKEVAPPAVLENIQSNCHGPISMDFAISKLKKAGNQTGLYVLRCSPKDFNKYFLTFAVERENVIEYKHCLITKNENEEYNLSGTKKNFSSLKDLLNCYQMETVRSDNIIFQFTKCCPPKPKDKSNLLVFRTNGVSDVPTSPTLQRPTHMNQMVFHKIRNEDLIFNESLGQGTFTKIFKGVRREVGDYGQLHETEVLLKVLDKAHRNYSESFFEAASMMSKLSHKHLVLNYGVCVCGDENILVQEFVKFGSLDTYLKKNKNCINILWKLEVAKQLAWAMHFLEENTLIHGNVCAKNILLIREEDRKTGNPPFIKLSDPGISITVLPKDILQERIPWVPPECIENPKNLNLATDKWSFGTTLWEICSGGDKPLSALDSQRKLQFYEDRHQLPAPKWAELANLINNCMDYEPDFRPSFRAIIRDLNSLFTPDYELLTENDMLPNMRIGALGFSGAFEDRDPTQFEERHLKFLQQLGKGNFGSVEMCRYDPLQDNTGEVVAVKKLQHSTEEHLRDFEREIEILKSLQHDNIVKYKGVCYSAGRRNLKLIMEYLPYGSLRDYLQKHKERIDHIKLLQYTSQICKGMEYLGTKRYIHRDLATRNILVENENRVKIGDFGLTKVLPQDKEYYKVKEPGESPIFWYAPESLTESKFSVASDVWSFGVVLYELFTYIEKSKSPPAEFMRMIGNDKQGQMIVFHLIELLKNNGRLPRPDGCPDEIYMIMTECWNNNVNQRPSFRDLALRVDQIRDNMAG
Sequence of JAK2/JAK2 homdimeric complex (P32927 17-897 partner): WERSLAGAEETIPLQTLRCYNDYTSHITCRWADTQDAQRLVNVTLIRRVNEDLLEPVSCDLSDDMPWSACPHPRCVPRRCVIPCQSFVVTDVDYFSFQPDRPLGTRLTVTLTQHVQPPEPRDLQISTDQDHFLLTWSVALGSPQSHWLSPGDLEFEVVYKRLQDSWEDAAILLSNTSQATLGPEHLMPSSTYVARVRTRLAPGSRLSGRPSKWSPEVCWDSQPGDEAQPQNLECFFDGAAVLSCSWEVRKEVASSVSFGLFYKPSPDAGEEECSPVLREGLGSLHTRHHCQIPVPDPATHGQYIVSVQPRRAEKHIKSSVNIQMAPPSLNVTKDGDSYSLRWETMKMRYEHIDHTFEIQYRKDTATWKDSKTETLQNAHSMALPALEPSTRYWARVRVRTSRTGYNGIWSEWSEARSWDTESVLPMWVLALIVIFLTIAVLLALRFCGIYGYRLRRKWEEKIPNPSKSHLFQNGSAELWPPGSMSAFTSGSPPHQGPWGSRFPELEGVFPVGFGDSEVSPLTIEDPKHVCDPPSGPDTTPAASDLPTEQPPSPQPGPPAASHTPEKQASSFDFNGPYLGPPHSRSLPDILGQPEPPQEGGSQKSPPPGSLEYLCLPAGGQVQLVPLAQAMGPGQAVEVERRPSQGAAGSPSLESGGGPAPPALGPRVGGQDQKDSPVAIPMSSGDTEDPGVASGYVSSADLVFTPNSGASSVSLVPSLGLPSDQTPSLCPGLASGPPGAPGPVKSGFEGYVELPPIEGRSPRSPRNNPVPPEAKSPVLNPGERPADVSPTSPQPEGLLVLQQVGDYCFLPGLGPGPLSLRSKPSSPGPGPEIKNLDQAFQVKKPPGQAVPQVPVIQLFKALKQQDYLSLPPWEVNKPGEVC

Sequence of JAK2 kinase domain (JH1) (O60674 849-1124): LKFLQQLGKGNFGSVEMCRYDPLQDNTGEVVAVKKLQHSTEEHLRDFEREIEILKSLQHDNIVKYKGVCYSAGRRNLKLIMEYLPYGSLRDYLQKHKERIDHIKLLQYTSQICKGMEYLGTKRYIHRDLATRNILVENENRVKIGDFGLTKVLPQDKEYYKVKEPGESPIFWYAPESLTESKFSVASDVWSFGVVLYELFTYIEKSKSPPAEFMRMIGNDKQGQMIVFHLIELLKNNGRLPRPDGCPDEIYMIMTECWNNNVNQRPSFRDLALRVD
Sequence of human TYK2 (JH2domain-pseudokinase) (P29597 556-888): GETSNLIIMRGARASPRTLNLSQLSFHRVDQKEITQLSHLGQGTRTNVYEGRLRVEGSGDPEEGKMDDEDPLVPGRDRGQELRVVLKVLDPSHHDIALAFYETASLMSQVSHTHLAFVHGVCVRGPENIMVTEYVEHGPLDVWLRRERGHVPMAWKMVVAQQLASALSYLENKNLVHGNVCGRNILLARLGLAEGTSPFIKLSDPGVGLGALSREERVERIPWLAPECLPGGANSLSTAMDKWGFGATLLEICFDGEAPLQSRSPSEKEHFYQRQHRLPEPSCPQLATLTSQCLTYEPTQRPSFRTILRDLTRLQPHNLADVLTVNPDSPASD
Sequence of Tyk2/JAK2 (heterodimeric complex) (P29597 whole entry, other chains not shown): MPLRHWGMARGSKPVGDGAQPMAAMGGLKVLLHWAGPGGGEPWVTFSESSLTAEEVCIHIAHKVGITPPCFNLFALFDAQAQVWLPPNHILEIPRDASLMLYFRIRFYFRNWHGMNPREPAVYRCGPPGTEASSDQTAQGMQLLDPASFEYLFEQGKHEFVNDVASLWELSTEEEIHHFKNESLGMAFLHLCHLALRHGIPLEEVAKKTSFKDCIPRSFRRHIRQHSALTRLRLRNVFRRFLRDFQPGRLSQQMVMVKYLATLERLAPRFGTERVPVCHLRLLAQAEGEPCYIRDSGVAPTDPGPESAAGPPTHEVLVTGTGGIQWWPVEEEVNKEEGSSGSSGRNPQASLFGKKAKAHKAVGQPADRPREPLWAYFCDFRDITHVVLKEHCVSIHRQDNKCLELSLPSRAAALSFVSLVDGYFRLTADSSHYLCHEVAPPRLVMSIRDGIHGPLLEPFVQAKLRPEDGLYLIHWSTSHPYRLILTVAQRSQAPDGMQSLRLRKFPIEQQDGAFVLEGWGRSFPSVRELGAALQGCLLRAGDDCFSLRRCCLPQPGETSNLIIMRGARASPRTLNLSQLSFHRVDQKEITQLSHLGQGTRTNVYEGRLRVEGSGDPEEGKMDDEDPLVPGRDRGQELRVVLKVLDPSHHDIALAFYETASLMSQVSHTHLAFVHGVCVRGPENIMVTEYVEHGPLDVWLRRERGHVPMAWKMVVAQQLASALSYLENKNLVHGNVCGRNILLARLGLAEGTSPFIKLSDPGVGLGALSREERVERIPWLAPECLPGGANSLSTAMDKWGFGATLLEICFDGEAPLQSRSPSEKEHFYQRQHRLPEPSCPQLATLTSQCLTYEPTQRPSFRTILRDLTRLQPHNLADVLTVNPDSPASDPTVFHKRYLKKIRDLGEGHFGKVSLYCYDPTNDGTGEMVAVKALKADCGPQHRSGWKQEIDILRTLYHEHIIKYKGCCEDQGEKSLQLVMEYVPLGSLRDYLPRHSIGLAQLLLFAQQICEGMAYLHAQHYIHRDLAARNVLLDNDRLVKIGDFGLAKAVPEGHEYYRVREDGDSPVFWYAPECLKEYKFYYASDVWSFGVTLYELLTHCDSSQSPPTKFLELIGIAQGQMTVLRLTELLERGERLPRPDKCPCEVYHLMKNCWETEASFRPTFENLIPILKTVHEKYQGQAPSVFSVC
Sequence of Tyk2 kinase domain (DH1) (P29597 897-1176): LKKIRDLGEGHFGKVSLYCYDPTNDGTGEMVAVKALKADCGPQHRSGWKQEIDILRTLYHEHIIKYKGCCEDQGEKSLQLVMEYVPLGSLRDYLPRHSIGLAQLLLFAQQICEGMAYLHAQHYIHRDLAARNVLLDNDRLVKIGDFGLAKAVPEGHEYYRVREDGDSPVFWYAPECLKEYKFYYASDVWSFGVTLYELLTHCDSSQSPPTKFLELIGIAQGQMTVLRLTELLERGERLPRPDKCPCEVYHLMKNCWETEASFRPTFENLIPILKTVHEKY

With `CNc1cc(Nc2cccn(-c3ncc(C)s3)c2=O)nc2c(C(=O)N[C@H]3C[C@H]3F)cnn12` [I-262], the values for the IC50 in assay [1] and in assay [5] were under 100 nM and over 2500 nM, respectively. The equilibrium dissociation constant (Kd) in assay [2] was under 0.2 nM. In addition, the inhibition at 10 µM is under 50% in assay [3] (compound at 10 μM, ATP 10 μM) and under 50% in assay [4] (compound at 10 μM, ATP 10 μM).
For the compound `CNc1cc(Nc2cc(F)cn(-c3ccn(C)n3)c2=O)nc2c(C(=O)N[C@H]3C[C@H]3F)cnn12` [I-379], the IC50 is under 100 nM in assay [1] and over 2500 nM in assay [5]. Besides, in assay [2], the Kd was under 0.2 nM. Moreover, the inhibition at 10 µM was under 50% in assay [3] (compound at 10 μM, ATP 10 μM) and under 50% in assay [4] (compound at 10 μM, ATP 10 μM).
For the compound `CNc1cc(Nc2cc(Cl)cn([C@@H]3CCCN(C)C3)c2=O)nc2c(C(=O)NC3CC3)cnn12` [I-819], the figures for the half-inhibitory concentration (IC50) in assay [1] and in assay [5] were under 100 nM and over 50000 nM, respectively. The compound further had a Kd in assay [2] of under 0.2 nM. The inhibition at 10 µM in assay [3] (10 μM compound, 10 μM ATP) is under 50%; in assay [4] (10 μM compound, 10 μM ATP), under 50%.
As for `CNc1cc(Nc2cc(C)cn(-c3cnn(C)c3)c2=O)nc2c(C(=O)N[C@H]3C[C@H]3F)cnn12` [I-235], the IC50 in assay [1] is under 100 nM; in assay [5], over 2500 nM. In assay [2], this compound showed a Kd of under 0.2 nM. Further, the inhibition at 10 µM in assay [3] (compound at 10 μM, ATP 10 μM) is under 50%; in assay [4] (compound at 10 μM, ATP 10 μM), under 50%.
Turning to `CNc1cc(-c2cn(C(C)C)c3ncccc23)nc2c(C(=O)NC3CCC3)cnn12` [I-224], the IC50 in assay [1] is under 100 nM; in assay [5], over 50000 nM. In addition, in assay [2], the Kd is under 0.2 nM. The inhibition at 10 µM in assay [3] (compound at 10 μM, ATP 10 μM) was under 50%; in assay [4] (compound at 10 μM, ATP 10 μM), under 50%.
Regarding `COc1ncccc1Nc1cc(NCCCN2CCOCC2)n2ncc(C(=O)N[C@@H]3C[C@@H]3F)c2n1` (stereo in doubt) [I-377, N-((1R,2S)-2-fluorocyclopropyl)-5-((2-methoxypyridin-3-yl)amino)-7-((3-morpholinopropyl)amino)pyrazolo[1,5-a]pyrimidine-3-carboxamide], the 50% inhibitory concentration (IC50) in assay [1] was 100 to 500 nM; in assay [5] it was over 50000 nM. In addition, the dissociation constant Kd in assay [2] was 0.2 to 1 nM. In addition, the inhibition at 10 µM is under 50% in assay [3] (compound at 10 μM, ATP 10 μM) and under 50% in assay [4] (compound at 10 μM, ATP 10 μM).
As to `CNc1cc(Nc2cc(Cl)cn(-c3ncc(C)s3)c2=O)nc2c(C(=O)N[C@H]3C[C@H]3F)cnn12` [I-323], the values for the IC50 in assay [1] and in assay [5] were under 100 nM and over 2500 nM, respectively. Further, the equilibrium dissociation constant (Kd) in assay [2] is under 0.2 nM. Also, the inhibition at 10 µM is under 50% in assay [3] (compound at 10 μM, ATP 10 μM) and under 50% in assay [4] (compound at 10 μM, ATP 10 μM).
Turning to `CNc1cc(Nc2cccn(-c3ncco3)c2=O)nc2c(C(=O)NC3CC3)cnn12` [I-715], the figures for the concentration for half-maximal inhibition (IC50) in assay [1] and in assay [5] were under 100 nM and over 2500 nM, respectively. This compound came in with a Kd in assay [2] of under 0.2 nM. In addition, the inhibition at 10 µM in assay [3] (compound at 10 μM, ATP 10 μM) was under 50%; in assay [4] (compound at 10 μM, ATP 10 μM), under 50%.
As to `CNc1cc(Nc2cc(F)cn([C@H]3CCCOC3)c2=O)nc2c(C(=O)N[C@H]3C[C@H]3F)cnn12` [I-559], the IC50 in assay [1] was under 100 nM; in assay [5], over 50000 nM. This compound returned a dissociation constant Kd in assay [2] of under 0.2 nM. Besides, the inhibition at 10 µM is under 50% in assay [3] (compound at 10 μM, ATP 10 μM) and under 50% in assay [4] (compound at 10 μM, ATP 10 μM).
Consider `CNc1cc(-c2cn(C(C)C)c3ncccc23)nc2c(C(=O)N[C@H]3CC[C@H]3O)cnn12` [I-637], for which the half-inhibitory concentration (IC50) in assay [1] is under 100 nM; in assay [5], over 12500 nM. The compound further had a Kd in assay [2] of under 0.2 nM. Besides, the inhibition at 10 µM in assay [3] (compound at 10 μM, ATP 10 μM) is under 50%; in assay [4] (compound at 10 μM, ATP 10 μM), under 50%.
For `[2H]C([2H])([2H])Oc1ncccc1Nc1cc(NC)n2ncc(C(=O)N[C@H]3C[C@H]3F)c2n1` [I-177], the concentration for half-maximal inhibition (IC50) in assay [1] was under 100 nM; in assay [5], over 12500 nM. The compound also registered an equilibrium dissociation constant (Kd) in assay [2] of under 0.2 nM. The inhibition at 10 µM was under 50% in assay [3] (compound at 10 μM, ATP 10 μM) and under 50% in assay [4] (compound at 10 μM, ATP 10 μM).
In the case of `CNc1cc(Nc2cccnc2OC(C)C)nc2c(C(=O)NC3CCC3)cnn12` [I-145], the half-inhibitory concentration (IC50) in assay [1] was 100 to 500 nM; in assay [5] it was over 50000 nM. The compound also came in with a Kd in assay [2] of under 0.2 nM. The inhibition at 10 µM was under 50% in assay [3] (compound at 10 μM, ATP 10 μM) and under 50% in assay [4] (compound at 10 μM, ATP 10 μM).
`CNc1cc(Nc2cc(C)cn(-c3cnn(C)c3)c2=O)nc2c(C(=O)NC3CC3)cnn12` [I-233]: the IC50 is under 100 nM in assay [1] and over 50000 nM in assay [5]. In assay [2], this compound came in with a dissociation constant Kd of under 0.2 nM. For the same compound, the inhibition at 10 µM in assay [3] (compound at 10 μM, ATP 10 μM) was under 50%; in assay [4] (compound at 10 μM, ATP 10 μM), under 50%.
In the case of `CNc1cc(Nc2cccn([C@H]3CC[C@H](OC)CC3)c2=O)nc2c(C(=O)N[C@H]3CC[C@@H]3O)cnn12` [I-540], the half-maximal inhibitory concentration (IC50) in assay [1] was under 100 nM; in assay [5], over 12500 nM. The compound further returned a Kd in assay [2] of under 0.2 nM. For the same compound, the inhibition at 10 µM was under 50% in assay [3] (compound at 10 μM, ATP 10 μM) and under 50% in assay [4] (compound at 10 μM, ATP 10 μM).
With `CNc1cc(-c2cn(C(C)C)c3ncccc23)nc2c(C(=O)N[C@H]3CC[C@@H]3O)cnn12` [I-586, N-((1R,2R)-2-hydroycyclobutyl)-5-(1-isopropyl-1H-pyrrolo[2,3-b]pyridin-3-yl)-7-(methylamino)pyrazolo[1,5-a]pyrimidine-3-carboxamide], the IC50 is under 100 nM in assay [1] and over 50000 nM in assay [5]. The same compound displayed a Kd in assay [2] of under 0.2 nM. Besides, the inhibition at 10 µM in assay [3] (compound at 10 μM, ATP 10 μM) is under 50%; in assay [4] (compound at 10 μM, ATP 10 μM), under 50%.
Turning to `CNc1cc(Nc2cccn(C3CCN(CCF)CC3)c2=O)nc2c(C(=O)N[C@H]3C[C@H]3F)cnn12` [I-570], the IC50 is under 100 nM in assay [1] and over 50000 nM in assay [5]. In assay [2], this compound came in with a Kd of under 0.2 nM. In addition, the inhibition at 10 µM was under 50% in assay [3] (compound at 10 μM, ATP 10 μM) and under 50% in assay [4] (compound at 10 μM, ATP 10 μM).
`CNc1cc(Nc2cccc([C@@H]3CCCOC3)n2)nc2c(C(=O)N[C@H]3CC[C@@H]3O)cnn12` [I-603]: the IC50 is under 100 nM in assay [1] and over 2500 nM in assay [5]. In addition, the Kd in assay [2] was under 0.2 nM. The inhibition at 10 µM fell in the range of 50 to 70% in assay [3] (compound at 10 μM, ATP 10 μM) and 50 to 70% in assay [4] (compound at 10 μM, ATP 10 μM).
For the compound `[2H]C([2H])([2H])Oc1ncccc1Nc1cc(NC)n2ncc(C(=O)N[C@H]3CC[C@H](O)C3)c2n1` [I-500], the results for the concentration for half-maximal inhibition (IC50) in assay [1] and in assay [5] were under 100 nM and over 50000 nM, respectively. In addition, in assay [2], the dissociation constant (Kd) was under 0.2 nM. The “JAK2 JH1% Inhibition @ 10 μM” value in assay [3] (compound at 10 μM, ATP 10 μM) is on record as “A (percent inhibition at 10 μM lower than 50)”. In addition, the “Tyk2 JH1% Inhibition @ 10 μM” value in assay [4] (compound at 10 μM, ATP 10 μM) was “A (percent inhibition at 10 μM lower than 50)”.
As to `CNc1cc(Nc2cccn(-c3cnc(C(C)(C)O)cn3)c2=O)nc2c(C(=O)NC3CCC3)cnn12` [I-95], the 50% inhibitory concentration (IC50) is under 100 nM in assay [1] and over 50000 nM in assay [5]. In assay [2], the Kd was under 0.2 nM. The inhibition at 10 µM in assay [3] (compound at 10 μM, ATP 10 μM) is under 50%; in assay [4] (compound at 10 μM, ATP 10 μM), under 50%.
Regarding `CNc1cc(Nc2cccn(C3CCC4(CC3)OCCO4)c2=O)nc2c(C(=O)NC3CC3)cnn12` [I-393], the values for the IC50 in assay [1] and in assay [5] were under 100 nM and over 12500 nM, respectively. Besides, the Kd in assay [2] is under 0.2 nM. The inhibition at 10 µM in assay [3] (compound at 10 μM, ATP 10 μM) was under 50%; in assay [4] (compound at 10 μM, ATP 10 μM), under 50%.
As to `CNc1cc(-c2c[nH]c3c(C)cc(C)cc23)nc2c(C(N)=O)cnn12` [I-36, 5-(5,7-dimethyl-1H-indol-3-yl)-7-(methylamino)pyrazolo[1,5-a]pyrimidine-3-carboamide], the IC50 in assay [1] is under 100 nM; in assay [5] it was over 12500 nM. The compound further came in with a Kd in assay [2] of under 0.2 nM. Moreover, the inhibition at 10 µM in assay [3] (compound at 10 μM, ATP 10 μM) is under 50%; in assay [4] (compound at 10 μM, ATP 10 μM), under 50%.

The values above are taken from patent US10508120B2, “TYK2 inhibitors and uses thereof” (Nimbus Lakshmi, Inc., priority 2017, dated 2019).
